# According to PubChem BioAssay (NCI):
#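 Five compound concentrations were applied to cells in 96-well plates for 48 hours; endpoints were derived by simple linear interpolation of the resulting dose-response curve. TGI marks complete inhibition of growth.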
# Legend:
# Assay in all cases: NCI anticancer screen, dose series, 48 h
# COLO 205 colon = system: COLO 205 colon
# OVCAR-8 ovarian = system: OVCAR-8 ovarian
# ACHN renal = system: ACHN renal
# KM20L2 colon = system: KM20L2 colon
# XF 498 CNS = system: XF 498 CNS
# SF-539 CNS = system: SF-539 CNS
# SN12C renal = system: SN12C renal
# SNB-75 CNS = system: SNB-75 CNS
# OVCAR-4 ovarian = system: OVCAR-4 ovarian
# SF-295 CNS = system: SF-295 CNS
# OVCAR-3 ovarian = system: OVCAR-3 ovarian
# UACC-257 melanoma = system: UACC-257 melanoma
# CCRF-CEM leukemia = system: CCRF-CEM leukemia
# RPMI-8226 leukemia = system: RPMI-8226 leukemia
# RXF 393 renal = system: RXF 393 renal
# HCT-116 colon = system: HCT-116 colon
# HCT-15 colon = system: HCT-15 colon
# MOLT-4 leukemia = system: MOLT-4 leukemia
# RXF-631 renal = system: RXF-631 renal
# SK-MEL-28 melanoma = system: SK-MEL-28 melanoma
# HCC-2998 colon = system: HCC-2998 colon
# SK-MEL-2 melanoma = system: SK-MEL-2 melanoma
# SW-620 colon = system: SW-620 colon
# NCI-H226 lung = system: NCI-H226 lung
# MALME-3M melanoma = system: MALME-3M melanoma
# 786-0 renal = system: 786-0 renal
# M19-MEL melanoma = system: M19-MEL melanoma
# DMS 114 small cell lung = system: DMS 114 small cell lung
# HT29 colon = system: HT29 colon
# LOX IMVI melanoma = system: LOX IMVI melanoma
# HOP-18 NSCLC = system: HOP-18 NSCLC
# DLD-1 colon = system: DLD-1 colon
# A498 renal = system: A498 renal
# UO-31 renal = system: UO-31 renal
# KM12 colon = system: KM12 colon
# K-562 leukemia = system: K-562 leukemia
# NCI-H522 lung = system: NCI-H522 lung
# TK-10 renal = system: TK-10 renal
# SNB-19 CNS = system: SNB-19 CNS
# SNB-78 CNS = system: SNB-78 CNS
# HL-60(TB) leukemia = system: HL-60(TB) leukemia
# A549 NSCLC = system: A549 NSCLC
# SF-268 CNS = system: SF-268 CNS
# SK-OV-3 ovarian = system: SK-OV-3 ovarian
# HOP-92 NSCLC = system: HOP-92 NSCLC
# EKVX NSCLC = system: EKVX NSCLC
# U251 CNS = system: U251 CNS
# HOP-62 NSCLC = system: HOP-62 NSCLC
# LXFL 529 NSCLC = system: LXFL 529 NSCLC
# NCI-H460 lung = system: NCI-H460 lung
# NCI-H23 lung = system: NCI-H23 lung
# OVCAR-5 ovarian = system: OVCAR-5 ovarian
# M14 melanoma = system: M14 melanoma
# IGROV1 ovarian = system: IGROV1 ovarian
# SK-MEL-5 melanoma = system: SK-MEL-5 melanoma
# UACC-62 melanoma = system: UACC-62 melanoma
# DMS 273 small cell lung = system: DMS 273 small cell lung
# CAKI-1 renal = system: CAKI-1 renal
compound,measurement,setting,value
CCCCCCCCCCCCCCCCc1c(C(=O)OC)nc(NC#N)[nH]c1=O,TGI,COLO 205 colon,> 25 µM
same,TGI,OVCAR-8 ovarian,> 25 µM
same,TGI,ACHN renal,> 25 µM
same,TGI,KM20L2 colon,> 25 µM
same,TGI,XF 498 CNS,> 25 µM
same,TGI,SF-539 CNS,> 25 µM
same,TGI,SN12C renal,> 25 µM
same,TGI,SNB-75 CNS,> 25 µM
same,TGI,OVCAR-4 ovarian,> 25 µM
same,TGI,SF-295 CNS,> 25 µM
same,TGI,OVCAR-3 ovarian,> 25 µM
same,TGI,UACC-257 melanoma,> 25 µM
same,TGI,CCRF-CEM leukemia,> 25 µM
same,TGI,RPMI-8226 leukemia,> 25 µM
same,TGI,RXF 393 renal,> 25 µM
same,TGI,HCT-116 colon,> 25 µM
same,TGI,HCT-15 colon,> 25 µM
same,TGI,MOLT-4 leukemia,> 25 µM
same,TGI,RXF-631 renal,> 25 µM
same,TGI,SK-MEL-28 melanoma,> 25 µM
same,TGI,HCC-2998 colon,> 25 µM
same,TGI,SK-MEL-2 melanoma,> 25 µM
same,TGI,SW-620 colon,> 25 µM
same,TGI,NCI-H226 lung,> 25 µM
same,TGI,MALME-3M melanoma,> 25 µM
same,TGI,786-0 renal,> 25 µM
same,TGI,M19-MEL melanoma,> 25 µM
same,TGI,DMS 114 small cell lung,> 25 µM
same,TGI,HT29 colon,> 25 µM
same,TGI,LOX IMVI melanoma,> 25 µM
same,TGI,HOP-18 NSCLC,> 25 µM
same,TGI,DLD-1 colon,> 25 µM
same,TGI,A498 renal,> 25 µM
same,TGI,UO-31 renal,> 25 µM
same,TGI,KM12 colon,> 25 µM
same,TGI,K-562 leukemia,> 25 µM
same,TGI,NCI-H522 lung,> 25 µM
same,TGI,TK-10 renal,> 25 µM
same,TGI,SNB-19 CNS,> 25 µM
same,TGI,SNB-78 CNS,> 25 µM
same,TGI,HL-60(TB) leukemia,> 25 µM
same,TGI,A549 NSCLC,> 25 µM
same,TGI,SF-268 CNS,> 25 µM
same,TGI,SK-OV-3 ovarian,> 25 µM
same,TGI,HOP-92 NSCLC,> 25 µM
same,TGI,EKVX NSCLC,> 25 µM
same,TGI,U251 CNS,> 25 µM
same,TGI,HOP-62 NSCLC,> 25 µM
same,TGI,LXFL 529 NSCLC,> 25 µM
same,TGI,NCI-H460 lung,> 25 µM
same,TGI,NCI-H23 lung,> 25 µM
same,TGI,OVCAR-5 ovarian,> 25 µM
same,TGI,M14 melanoma,> 25 µM
COc1ccc(/C=C/c2onc3c(=O)n(C)nc(-c4ccccc4)c23)cc1,TGI,COLO 205 colon,> 100 µM
same,TGI,OVCAR-8 ovarian,> 100 µM
same,TGI,ACHN renal,> 100 µM
same,TGI,KM20L2 colon,> 100 µM
same,TGI,XF 498 CNS,> 100 µM
same,TGI,SF-539 CNS,> 100 µM
same,TGI,SN12C renal,> 100 µM
same,TGI,CCRF-CEM leukemia,> 100 µM
same,TGI,RPMI-8226 leukemia,> 100 µM
same,TGI,RXF 393 renal,> 100 µM
same,TGI,IGROV1 ovarian,> 100 µM
same,TGI,HCT-116 colon,> 100 µM
same,TGI,HCT-15 colon,> 100 µM
same,TGI,MOLT-4 leukemia,> 100 µM
same,TGI,SK-MEL-5 melanoma,> 100 µM
same,TGI,SK-MEL-28 melanoma,> 100 µM
same,TGI,SW-620 colon,> 100 µM
same,TGI,786-0 renal,> 100 µM
same,TGI,M19-MEL melanoma,> 100 µM
same,TGI,DMS 114 small cell lung,> 100 µM
same,TGI,HT29 colon,> 100 µM
same,TGI,LOX IMVI melanoma,> 100 µM
same,TGI,HOP-18 NSCLC,> 100 µM
same,TGI,DLD-1 colon,> 100 µM
same,TGI,UO-31 renal,> 100 µM
same,TGI,K-562 leukemia,> 100 µM
same,TGI,NCI-H522 lung,> 100 µM
same,TGI,TK-10 renal,> 100 µM
same,TGI,SNB-19 CNS,> 100 µM
same,TGI,HL-60(TB) leukemia,> 100 µM
same,TGI,UACC-62 melanoma,> 100 µM
same,TGI,A549 NSCLC,> 100 µM
same,TGI,SF-268 CNS,> 100 µM
same,TGI,SK-OV-3 ovarian,> 100 µM
same,TGI,HOP-92 NSCLC,80.5 µM
same,TGI,EKVX NSCLC,> 100 µM
same,TGI,U251 CNS,> 100 µM
same,TGI,HOP-62 NSCLC,> 100 µM
same,TGI,LXFL 529 NSCLC,> 100 µM
same,TGI,DMS 273 small cell lung,> 100 µM
same,TGI,CAKI-1 renal,82.2 µM
same,TGI,NCI-H460 lung,> 100 µM
same,TGI,NCI-H23 lung,> 100 µM
same,TGI,M14 melanoma,> 100 µM
